Measurements: US9926375B2, “Anti-endoglin antibodies and uses thereof” (Tracon Pharmaceuticals, Inc., priority 2014, dated 2018)

Key:
human CD105 = target: T1, human CD105 (Homo sapiens, UniProt P17813); assay: Competition ELISA against biotinylated TRC205 antibody for binding to human CD105; conditions: biotinylated TRC205 55 ng/ml
T1 construct: purchased R&D Systems 1097-EN
T1 sequence (P17813 26-586 limits assumed): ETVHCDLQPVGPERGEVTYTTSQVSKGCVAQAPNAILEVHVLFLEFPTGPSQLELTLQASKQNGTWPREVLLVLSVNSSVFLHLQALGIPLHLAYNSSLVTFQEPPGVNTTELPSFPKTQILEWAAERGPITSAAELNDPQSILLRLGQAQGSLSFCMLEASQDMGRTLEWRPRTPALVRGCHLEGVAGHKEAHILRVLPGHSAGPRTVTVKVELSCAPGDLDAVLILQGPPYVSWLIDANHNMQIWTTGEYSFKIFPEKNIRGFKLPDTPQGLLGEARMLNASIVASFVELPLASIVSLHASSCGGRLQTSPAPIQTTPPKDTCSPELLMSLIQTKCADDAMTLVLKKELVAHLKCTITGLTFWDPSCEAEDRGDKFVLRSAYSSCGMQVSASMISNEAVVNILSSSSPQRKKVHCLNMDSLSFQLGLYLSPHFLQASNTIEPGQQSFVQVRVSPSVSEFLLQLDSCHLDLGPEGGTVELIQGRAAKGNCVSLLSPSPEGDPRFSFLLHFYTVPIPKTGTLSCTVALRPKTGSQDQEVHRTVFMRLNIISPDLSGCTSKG
Protocol: After washing three times with PBST, a three-fold dilution series of either human BMP9 (R&D Systems Cat. No. 3209-BP-010) (413 nM to 0.56 nM), or unlabelled TRC205 antibody (40 nM to 0.05 nM) or a single concentration of an irrelevant antibody (66 nM) was mixed with a fixed concentration of biotinylated TRC205 antibody (55 ng/ml) and added to the plate. Following incubation for 1 hour at room temperature, the plate was washed three times with PBST and binding of the biotinylated TRC205 antibody was detected using streptavidin-HRP (Sigma Cat. No. 55512) and TMB substrate (Sigma Cat. No. T0440). OD450 nm values were measured on a Dynex MRX TCII plate reader.

NASH mice = assay: Murine model of non-alcoholic steatohepatitis (NASH; STZ and high fat diet); type: in vivo, mouse
Description: The purpose of this study was to examine the protective effects of endoglin antibodies on a murine model of NASH.
NASH was established by a single subcutaneous injection of STZ (Sigma, USA) after birth and feeding with a high fat diet (HFD; CLEA Japan, Japan) ad libitum after 4 weeks of age (day 28±2).
Randomization of mice into 6 groups of 10 mice was done at 9 weeks of age (day 63±2), the day before the start of treatment.
Group 3 (Positive control; Temlisartan Group): Ten NASH mice were be orally administered pure water supplemented with telmisartan at a dose of 10 mg/kg once daily from day 63 to 84.
Group 4 (Antibody M1043: M1043 Group): Ten NASH mice were intravenously administered vehicle supplemented with Antibody M1043 at a dose of 10 mg/kg twice weekly at day 63, 66, 70, 73, 77 and 80.
Group 5 (Antibody TRC105; TRC105 Group): Ten NASH mice were intravenously administered vehicle supplemented with Antibody TRC105 at a dose of 10 mg/kg twice weekly at day 63, 66, 70, 73, 77 and 80.
Group 6 (Antibody TRC205; TRC205 Group): Ten NASH mice were intravenously administered vehicle supplemented with Antibody TRC205 at a dose of 10 mg/kg twice weekly at days 63, 66, 70, 73, 77 and 80.
Mice in all groups were terminated for the following assays at 12 weeks of age.
H&E staining of liver tissue was conducted to estimate NAFLD Activity score.
Total NAS score represents the sum of scores for steatosis, lobular inflammation, and ballooning, and ranges from 0-8. Diagnosis of NASH (or, alternatively, fatty liver not diagnostic of NASH) should be made first, then NAS is used to grade activity. In the reference study, NAS scores of 0-2 occurred in cases largely considered not diagnostic of NASH, scores of 3-4 were evenly divided among those considered not diagnostic, borderline, or positive for NASH. Scores of 5-8 occurred in cases that were largely considered diagnostic of NASH.
Statistical tests were performed using Bonferroni Multiple Comparison Test. P values<0.05 were considered statistically significant.

human endoglin = target: T2, human endoglin (Homo sapiens, UniProt P17813); conditions: statement in description; cited from earlier work
T2 sequence (P17813 26-658): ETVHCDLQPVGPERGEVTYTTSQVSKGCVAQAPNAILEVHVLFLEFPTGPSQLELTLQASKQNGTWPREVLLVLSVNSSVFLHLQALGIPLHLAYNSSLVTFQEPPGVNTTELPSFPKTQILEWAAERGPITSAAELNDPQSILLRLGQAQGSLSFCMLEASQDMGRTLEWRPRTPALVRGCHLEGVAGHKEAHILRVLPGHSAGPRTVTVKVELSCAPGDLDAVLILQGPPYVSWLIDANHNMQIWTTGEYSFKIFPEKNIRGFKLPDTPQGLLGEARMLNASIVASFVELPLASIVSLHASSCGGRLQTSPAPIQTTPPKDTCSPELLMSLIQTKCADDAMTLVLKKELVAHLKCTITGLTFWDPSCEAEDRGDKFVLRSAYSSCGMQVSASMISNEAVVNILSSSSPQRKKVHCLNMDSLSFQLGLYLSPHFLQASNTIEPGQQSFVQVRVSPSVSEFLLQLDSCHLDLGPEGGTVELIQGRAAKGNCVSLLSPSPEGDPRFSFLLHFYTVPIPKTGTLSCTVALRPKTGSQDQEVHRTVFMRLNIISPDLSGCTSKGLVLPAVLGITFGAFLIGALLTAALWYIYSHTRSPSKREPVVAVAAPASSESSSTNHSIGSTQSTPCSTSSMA

[1] = tested on: BLM-induced pulmonary fibrosis model mice; assay: Bleomycin-induced pulmonary fibrosis model; type: in vivo, mouse; conditions: vs isotype-control antibody group (isotype-control vs disease control group); day 21; Bonferroni, P<0.05
Protocol: Pathogen-free 7 weeks old female C57BL/6J mice were obtained from Japan SLC, Inc. (Japan). At day 0, 60 mice were induced to develop pulmonary fibrosis by a single intratracheal administration of bleomycin sulphate (BLM, Nippon Kayaku, Japan) in saline at a dose of 3 mg/kg, in a volume of 50 μL per animal using Microsprayer® (Penn-Century, USA).
BLM-induced pulmonary fibrosis model mice were randomized into 4 groups of 12 mice based on the body weight on the day before the start of treatment.
Group 3 (M1043 Antibody): Twelve BLM-induced pulmonary fibrosis model mice were intravenously administered vehicle supplemented with M1043 at a dose of 10 mg/kg twice weekly at day 7, 10, 14 and 17.
Group 4 (TRC105 human/mouse chimeric antibody): Twelve BLM-induced pulmonary fibrosis model mice were intravenously administered vehicle supplemented with TRC105 at a dose of 10 mg/kg twice weekly at day 7, 10, 14 and 17.
Group 5 (BIBF1120 inhibitor for Idiopathic Pulmonary Fibrosis—positive control, Boehringer Ingelheim): Twelve BLM-induced pulmonary fibrosis model mice were orally administered 1% CMC supplemented with BIBF1120 at a dose of 100 mg/kg once daily from day 7 to 21. […]
Histological analysis of lung sections was conducted by practitioners who are not aware of the Group identity. Masson's Trichrome staining is conducted and an Ashcroft Score estimate was determined. […]

mouse endoglin = target: T3, mouse endoglin (Mus musculus, UniProt Q63961); assay: Inhibition of mouse BMP binding to mouse endoglin (statement, no method); conditions: statement in description
T3 sequence (Q63961 27-653): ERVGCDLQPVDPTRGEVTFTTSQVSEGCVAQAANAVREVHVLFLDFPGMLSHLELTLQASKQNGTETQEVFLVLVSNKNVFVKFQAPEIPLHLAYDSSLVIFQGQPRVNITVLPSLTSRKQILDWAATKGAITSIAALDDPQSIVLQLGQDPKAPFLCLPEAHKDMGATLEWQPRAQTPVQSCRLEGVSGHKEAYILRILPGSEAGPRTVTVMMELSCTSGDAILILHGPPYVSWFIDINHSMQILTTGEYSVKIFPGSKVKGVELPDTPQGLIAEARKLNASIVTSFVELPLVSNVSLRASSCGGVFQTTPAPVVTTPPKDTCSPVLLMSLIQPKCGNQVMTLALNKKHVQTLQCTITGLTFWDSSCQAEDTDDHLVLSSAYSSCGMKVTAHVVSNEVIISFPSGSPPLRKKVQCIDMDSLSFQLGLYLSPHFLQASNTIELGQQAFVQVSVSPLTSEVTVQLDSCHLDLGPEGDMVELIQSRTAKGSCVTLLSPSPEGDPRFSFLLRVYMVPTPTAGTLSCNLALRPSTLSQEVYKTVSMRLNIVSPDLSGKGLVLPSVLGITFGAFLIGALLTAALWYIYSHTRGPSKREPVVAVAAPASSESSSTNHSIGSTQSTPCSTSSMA

[2] = liver gene expression, mean ± SD, Normal-Vehicle 1.0

## BMP9: human BMP9 (R&D Systems Cat. No. 3209-BP-010), endoglin ligand [reference compound]
Human CD105
  IC50 of competition with biotinylated TRC205 antibody: 0.35 µg/mL

## TRC105: human murine chimeric IgG1 monoclonal antibody that binds endoglin; VL/VH SEQ ID NOS. 1 and 39
NASH mice; Bonferroni, P<0.05
  Liver triglyceride contents compared with the NASH-Vehicle group: tended to decrease
  NAS compared with the NASH-Vehicle group: tended to decrease in NAS
  Serum alanine aminotransferase (ALT) levels compared with the NASH-Vehicle group: no significant difference
  Serum alkaline phosphatase (ALP) levels compared with the NASH-Vehicle group: tended to decrease
  Tissue inhibitor of metalloproteinase-1 mRNA expression levels compared with the NASH-Vehicle group: significantly up-regulated
  Tumor necrosis factor-alpha mRNA expression levels compared with the NASH-Vehicle group: significantly up-regulated
NASH mice; F4/80 immunostaining, macrophage marker
  F4/80-positive signals and cells in liver compared with the NASH-Vehicle group: Lower F4/80-positive signals and positive cells
NASH mice; [2]
  Alpha-SMA mRNA expression: 1.7 ± 0.7
  MCP-1 mRNA expression: 5.7 ± 4.2
  TIMP-1 mRNA expression: 25.4 ± 23.0
  TNF-α mRNA expression: 12.9 ± 9.5
NASH mice; mean ± SD
  Liver triglyceride: 31.1 ± 20.3 mg/g liver
  Serum ALP: 291 ± 119 U/L
  Serum ALT: 62 ± 57 U/L
  Serum AST: 204 ± 205 U/L
NASH mice; mean ± SD, liver sections
  Sirius red-positive area: 0.92 ± 0.20%
NASH mice; mean ± SD, range 0-8, 10 mg/kg
  NAS (NAFLD Activity score): 4.4 ± 1.4
NASH mice; score 0 = <5%, 12 weeks of age
  Steatosis score 0, number of mice: 1
NASH mice; score 0 = None
  Hepatocyte ballooning score 0, number of mice: 3
NASH mice; score 1 = 5-33%
  Steatosis score 1, number of mice: 6
NASH mice; score 1 = <2 foci/200x
  Lobular inflammation score 1, number of mice: 1
NASH mice; score 2 = 2-4 foci/200x
  Lobular inflammation score 2, number of mice: 5
NASH mice; score 2 = >33-66%
  Steatosis score 2, number of mice: 1
NASH mice; score 2 = Many cells/prominent ballooning
  Hepatocyte ballooning score 2, number of mice: 5
NASH mice; score 3 = >4 foci/200x
  Lobular inflammation score 3, number of mice: 2
Human endoglin
  Effect on human BMP binding to human endoglin: competitively inhibits human BMP binding
[1]
  Ashcroft score, comparison between groups: significantly lower
Mouse endoglin
  Effect on mouse BMP binding to mouse endoglin: dose not prevent the binding of mouse BMP to mouse endoglin
